One data set relates to SARS-CoV-2 (Omicron). Nature of the data set: SARS-CoV-2 Omicron dose-response assay on Vero E6 cells. The format is cell-based. The following applies: Severe acute respiratory syndrome coronavirus 2, Vero C1008, read-out: SARS-CoV-2 (Omicron) EC50 (95% CI).
The next data set has as its system HIV-1 (YU-2). Nature of the data set: HIV-1 (YU-2) inhibition assay on TZM-bl cells (luciferase). The format is cell-based. The settings on record: Human immunodeficiency virus 1, read-out: HIV-1 EC50 (95% CI).
Data set [1] can be described thus: in vitro. The following applies: African green monkey.
Data set [2] can be described thus: Vero cell cytotoxicity (MTS assay). The format is cell-based. The settings on record: African green monkey, Vero cells, read-out: CC50 (95% CI), Vero cells.
The test system of the next data set is GFP-EBV B95-8 (EBV). Nature of the data set: microbe, parasite or virus in culture. The settings on record: human gammaherpesvirus 4, read-out: EBV EC50 (95% CI). Type of data set: cell-based, Epstein–Barr virus (EBV).
Data set [3] can be described thus: HEK293T cell cytotoxicity (Zombie NIR flow cytometry). The settings on record: human. For orientation: Flow cytometry measures light scatter and fluorescence of single cells or particles in a stream.
The test system of the next data set is GFP-KSHV (KSHV). Nature of the data set: microbe, parasite or virus in culture. Type of data set: cell-based, Kaposi’s sarcoma-associated herpesvirus (KSHV). The following applies: Human gammaherpesvirus 8, HEK-293T, read-out: KSHV EC50 (95% CI).
Data set [4] is described as follows: TZM-bl cell cytotoxicity (WST-1). The settings on record: human. In general terms: Tetrazolium assays rely on reduction of a dye to a coloured formazan, in cell work by metabolically active cells.
Data set [5] relates to Influenza A/Netherlands/2009 (H1N1). The experiment in a line: H1N1 inhibition assay on MDCK cells (ICC). Type of data set: cell-based. The settings on record: Influenza A virus, read-out: H1N1 EC50 (95% CI).
Data set [6] can be described thus: Raji cell cytotoxicity (Zombie NIR flow cytometry). The following applies: human.
The nature of data set [7]: in vitro. The following applies: dog.
The subject of data set [8] is HSV-2. The experiment in a line: HSV-2 inhibition (dose response) plaque assay on Vero cells. Type of data set: cell-based. The settings on record: Vero cells, virus pre-incubated with compound 1 h, read-out: HSV-2 EC50 (95% CI).
The next data set concerns SARS-CoV-2 Alpha. Type of data set: in vivo, Syrian hamster.
In the next data set the test system is SARS-CoV-2. Nature of the data set: SARS-CoV-2 Syrian hamster model, intranasal instillation from 12 h. Type of data set: in vivo. The following applies: B3C9S solution by intranasal instillation, 1.5, 4.5, 6 mg/kg/day from 12 h. As for the experimental part: Control Control *** Control
80 Placebo 80 Placebo 80 Placebo
Days post infection Days post infection Days post infection
Figure S10. Body weight of Syrian hamsters treated with 1.5mg/kg/day B3C9S (a), 4.5mg/kg/day B3C9S (b), 6mg/kg/day B3C9S (c) by intranasal instillation. 25 female Syrian hamsters were randomly assigned into five groups (control, placebo and three doses of B3C9S), each containing 5 hamsters. At day 0, each hamster was weighed and inoculated intranasally with 100 μl PBS (control) or 100 μl […] SARS-CoV-2 (placebo and B3C9S). Starting from 12 h after the inoculation, the hamsters in the placebo group and the […]
μg/μl) every day, respectively. The body weight of each hamster was measured every 12 h.
The weight measurements of each hamster were normalized by the initial weight and plotted against time post infection. The error bars represent the means ± standard deviations (n = 5). The asterisks represent the p value (*, <0.05; **, <0.01; ***, <0.001) calculated by two-tailed unpaired t test.
(also on this page, place not known: Body weight (%) Body weight (%) Body weight (%))

The test system of another data set is SARS-CoV-2 (Alpha). Nature of the data set: SARS-CoV-2 (alpha strain) inhibition plaque assay on Vero E6 cells. The format is cell-based. The settings on record: Severe acute respiratory syndrome coronavirus 2, Vero C1008, read-out: SARS-CoV-2 (Alpha) EC50 (95% CI).
For the next data set, the system named is Vero cells. The experiment in a line: Vero cell cytotoxicity (MTS assay). Type of data set: cell-based. The settings on record: 24 h, read-out: CC50 (95% CI), Vero cells.
A further data set has as its system TZM-bl cells. Nature of the data set: TZM-bl cell cytotoxicity (WST-1). The settings on record: read-out: CC50 (95% CI), TZM-bl cells; HIV-1 line.
The test system of data set [9] is HSV-2. Nature of the data set: HSV-2 inhibition under four treatment conditions (cell pretreatment, virus pretreatment, cotreatment, post-treatment). The format is cell-based.
A further data set has as its system MDCK cells. The settings on record: read-out: CC50 (95% CI), MDCK cells.
Data set [10] relates to HSV-2. The experiment in a line: HSV-2 DNA release (DNA exposure) assay with DNase. The settings on record: 43.2 and 86.5 μM. On the procedure:
To determine whether the virucidal effect is caused by the damage to the viral particles, we performed DNA release assays. Briefly, we incubated HSV-2 and B6C11S mixtures with DNase or buffer, inactivated the DNase, and then quantified the DNA amounts in the two samples (Figure 2c).

Another data set has as its system HEK293T cells. Nature of the data set: HEK293T cell cytotoxicity (Zombie NIR flow cytometry). The following applies: read-out: CC50 (95% CI), 293T cells; HEK293T cells; KSHV line.
In the next data set the test system is Raji cells. The experiment in a line: Raji cell cytotoxicity (Zombie NIR flow cytometry). The settings on record: read-out: CC50 (95% CI), Raji cells; EBV line.
Setting [11] is: read-out: CC50 (95% CI), Vero E6 cells, SARS-CoV-2 (Alpha) line.

“Also recorded” adds a separate entry of the source. Read-outs that look alike come from different tables or passages of the source. A value given as a limit tells only on which side of the number the result lay.

As usually defined, the EC50 is the concentration at which the effect is half-maximal.

Take `O=S(=O)(O)OCCCCCCCCCSCc1cc(CSCCCCCCCCCOS(=O)(=O)O)cc(CSCCCCCCCCCOS(=O)(=O)O)c1` [B3C9S]: the EC50 with SARS-CoV-2 (Omicron) turned out to be 1370 nM; with HIV-1 (YU-2) it was 6.34 µM; in the data set with GFP-EBV B95-8 (EBV) it was 46.5 µM; in the data set with GFP-KSHV (KSHV), 48.2 µM; in data set [5], 5.11 µM; in the data set with HSV-2 [8] (Human alphaherpesvirus 2, Vero), 7.9 µM. Also, the EC50 amounted to 7.92 µM in the data set with HSV-2 [8] and 1100 nM in the data set on SARS-CoV-2 (Alpha). Besides, the values for the CC50 in “in vitro [1]” and in the data set “in vitro [7]” were 14.7 µM and 16.6 µM, respectively. Moreover, in data set [2], the CC50 at 24 h worked out at 331 µM. Also, the values for the CC50 at 2 days in data set [3] (HEK293T cells) and in [6] (Raji cells) were 162 µM and > 341 µM, respectively. Besides, in data set [4] (TZM-bl cells), the CC50 at 6 h was > 113 µM. Also, the “efficacy with aerosol treatment compared with B6C11S” value in the data set with SARS-CoV-2 Alpha (hamster, in vivo) was “less effective”. For the same molecule, the “viral titer (viral RNA) in the lungs” value in the data set on SARS-CoV-2 Alpha (hamster, in vivo) is “significantly decreased the viral titer”. Also, in the data set with SARS-CoV-2 Alpha (hamster, in vivo), the “viral titer (viral RNA) in the oral swab” value is reported as “significantly reduced”. The “viral titer in oral swab and lung tissues vs untreated” value in the data set with SARS-CoV-2 Alpha (hamster, in vivo) was “No statistical difference”. Moreover, in the data set on SARS-CoV-2, the “body weight loss of infected hamsters” value is listed as “reduced the body weight loss”.

On to `O=S(=O)(O)OCCCCCCCCCSCc1c(CSCCCCCCCCCOS(=O)(=O)O)c(CSCCCCCCCCCOS(=O)(=O)O)c(CSCCCCCCCCCOS(=O)(=O)O)c(CSCCCCCCCCCOS(=O)(=O)O)c1CSCCCCCCCCCOS(=O)(=O)O` [B6C9S], for which the CC50 with Vero cells came to 42.7 µM; with TZM-bl cells, 10.5 µM; in the data set on Vero E6 cells (setting [11]), 3.9 µM.

On to `O=S(=O)(O)OCCCCCCCCCCCSCc1c(CSCCCCCCCCCCCOS(=O)(=O)O)c(CSCCCCCCCCCCCOS(=O)(=O)O)c(CSCCCCCCCCCCCOS(=O)(=O)O)c(CSCCCCCCCCCCCOS(=O)(=O)O)c1CSCCCCCCCCCCCOS(=O)(=O)O` [B6C11S], for which the “HSV-2 inhibition, cell pretreatment” value in the data set on HSV-2 [9] (condition (i) cell pretreatment, 21.6 μM) is listed as “no inhibition”. Also, the “decrease of percentage of infected cells” value is given as “over 85%” in the data set with HSV-2 [9] (condition (ii) virus pretreatment, 5.4 μM); “over 85%” in the data set on HSV-2 [9] (condition (iii) cotreatment, 5.4 μM); 85% in the data set with HSV-2 [9] (condition (iv) post-treatment, 21.6 μM). The CC50 was 200 µM with Vero cells; > 5.4 µM in the data set on MDCK cells; > 162 µM in the data set with HEK293T cells; > 54 µM in the data set with TZM-bl cells; > 162 µM in the data set on Raji cells; 17.5 µM in the data set on Vero E6 cells (setting [11]). For the same molecule, the CC50 in the data set on Vero E6 cells (read-out: CC50 (95% CI), Vero E6 cells, value repeated in the SARS-CoV-2 (Omicron) line) was 17.5 µM. In addition, in the data set with HSV-2 [10], the “release of viral DNA (HSV-2)” value was “induced the release of viral DNA”. Also, the “body weight change of infected hamsters” value in the data set on SARS-CoV-2 Alpha ([…], vs untreated group) is “no significant change”; with SARS-CoV-2 Alpha (hamster, in vivo), “decreased the body weight change”. In the data set with SARS-CoV-2 Alpha (hamster, in vivo), the “histopathological evaluation of lung tissues” value is on record as “improved pulmonary conditions”. Also, in the data set on SARS-CoV-2 Alpha (hamster, in vivo), the “infectious viral titer (TCID50) in the lungs vs untreated” value is “significantly decreased the viral titer; also recorded: significant reduction in the infectious viral load”. Also, the “severe lung damage (histopathology categories E and F)” value in the data set with SARS-CoV-2 Alpha (hamster, in vivo) is given as “reducing severe lung damage”. In addition, the “viral RNA copies in lung vs untreated” value in the data set with SARS-CoV-2 Alpha (hamster, in vivo) is given as “significantly decreased viral RNA copies”. The “viral RNA levels in oral swab vs untreated” value with SARS-CoV-2 Alpha (hamster, in vivo) is “significantly lower viral RNA levels”. In the data set with SARS-CoV-2 Alpha (hamster, in vivo), the “viral titers (viral RNA) in swab samples and lung tissues vs untreated” value was “did not find any notable differences; also recorded: No statistical difference”.

As to `O=S(=O)(O)OCCCCCCCCCCn1cc(COc2cc(OCc3cn(CCCCCCCCCCOS(=O)(=O)O)nn3)cc(OCc3cn(CCCCCCCCCCOS(=O)(=O)O)nn3)c2)nn1` [BTA3C10S], the EC50 in the data set on HIV-1 (YU-2) was 5.25 µM; in [5] it was 22.9 µM; in the data set on HSV-2 [8] (Human alphaherpesvirus 2, Vero), 17.1 µM; in the data set with SARS-CoV-2 (Alpha) it was > 93000 nM. In addition, the CC50 in “in vitro [1]” is > 929 µM; in “in vitro [7]”, > 930 µM. In addition, the CC50 at 24 h in data set [2] was > 371 µM. Moreover, the CC50 at 6 h in [4] is > 93 µM.

With `O=S(=O)(O)OCCCCCCCCCSCC(CSCCCCCCCCCOS(=O)(=O)O)(CSCCCCCCCCCOS(=O)(=O)O)CSCCCCCCCCCOS(=O)(=O)O` [P4C9S], the EC50 with HIV-1 (YU-2) is 1.94 µM; with GFP-EBV B95-8 (EBV), 33.9 µM; in the data set with GFP-KSHV (KSHV), 20.8 µM; in the data set on HSV-2 [8] (Human alphaherpesvirus 2, Vero), 6.5 µM; with HSV-2 [8], 6.48 µM; with SARS-CoV-2 (Alpha), 480 nM. This molecule also displayed a CC50 in “in vitro [1]” of 4 µM. In addition, the CC50 at 24 h in [2] turned out to be 185 µM. Besides, the results for the CC50 at 2 days in [3] and in data set [6] were 122 µM and > 276 µM, respectively. This molecule registered a CC50 at 6 h in data set [4] of 18.4 µM.

The values are drawn from PMC11117723, “Benzene with Alkyl Chains Is a Universal Scaffold for Multivalent Virucidal Antivirals” (ACS Central Science, 2024).
